From US20150004134A1, “TREATMENT OF CANCER WITH HETEROCYCLIC INHIBITORS OF GLUTAMINASE” (Calithera Biosciences, Inc., priority 2012, published 2015)

These compounds were tested on P493-6 (myc "on") cells (assay: Cell Proliferation Assay). Conditions: P493-6, 72 h, read-out: Cell prolif P493 72 h IC50, P493-6 cells, 72 h.
Type: cell-based
Summary of the method: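 Read-out: either Cell Titer Glo or Guava Viacount flow analysis after 72 h compound treatment of myc-on P493-6 cells (10,000/well, RPMI with 10% FBS) at 37 °C. DMSO held at 0.5% final.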

Compound | IC50
CC(C)(C)OC(=O)Nc1cccc(CC(=O)Nc2nnc(CCCCc3ccc(NC(=O)Cc4ccccc4)nn3)s2)c1 [Compound 399] | 26 nM
O=C(Cc1ccccc1)Nc1ccc(CCCCc2nnc(NC(=O)NC3CCCC3)s2)nn1 [Compound 403] | 120 nM
O=C(Cc1ccccc1)Nc1nnc(CCCCc2ccc(NC(=O)NCc3ccccc3)nn2)s1 [Compound 405] | 670 nM
NCc1ccc(CC(=O)Nc2nnc(CCCCc3ccc(NC(=O)Cc4ccccc4)nn3)s2)cc1 [Compound 407] | 44 nM
Nc1cccc(CC(=O)Nc2nnc(CCCCc3ccc(NC(=O)Cc4ccccc4)nn3)s2)c1 [Compound 409] | 37 nM
Nc1ccc(CCCCc2nnc(NC(=O)C(O)c3cccc(Cl)c3)s2)nn1 (centres unmarked) [Compound 411] | 740 nM
O=C(Cc1ccccc1)Nc1ccc(CCCCc2nnc(NC(=O)C(O)c3cccc(Br)c3)s2)nn1 (centres unmarked) [Compound 415] | 18 nM
Cc1cccc(CNC(=O)Nc2nnc(CCCCc3nnc(NC(=O)Cc4ccccc4)s3)s2)c1 [Compound 417] | 320 nM
CCNC(=O)Nc1ccc(CCCCc2nnc(NC(=O)Cc3cccc(CNC(=O)OC(C)(C)C)c3)s2)nn1 [Compound 420] | 70 nM
CC(C)(C)OC(=O)NCc1cccc(CC(=O)Nc2nnc(CCCCc3ccc(NC(=O)C(O)c4cccc(Cl)c4)nn3)s2)c1 (centres unmarked) [Compound 422] | 6 nM
CC(=O)Nc1ccc(CC(=O)Nc2nnc(CCCCc3ccc(NC(=O)Cc4ccccc4)nn3)s2)cc1 [Compound 426] | 33 nM
O=C(Cc1ccccc1)Nc1ccc(CCCCc2nnc(NC(=O)Cc3cccc(OCCO)c3)s2)nn1 [Compound 427] | 27 nM
COCCOc1cccc(CC(=O)Nc2nnc(CCCCc3ccc(NC(=O)Cc4ccccc4)nn3)s2)c1 [Compound 428] | 19 nM
O=C(Cc1ccccc1)Nc1ccc(CCCCc2nnc(NC(=O)Cc3cccc(CNC(=O)c4ccccc4)c3)s2)nn1 [Compound 432] | 4 nM
O=C(Cc1ccccc1)NCc1cccc(CC(=O)Nc2nnc(CCCCc3ccc(NC(=O)Cc4ccccc4)nn3)s2)c1 [Compound 435] | 6 nM
NCc1cccc(CC(=O)Nc2nnc(CCCCc3nnc(NC(=O)Cc4ccccc4)s3)s2)c1 [Compound 437] | 72 nM
CC(C)NC(=O)Nc1nnc(CCCCc2nnc(NC(=O)Cc3ccccc3)s2)s1 [Compound 438] | 880 nM
O=C(CN1CCOCC1)NCc1ccc(CC(=O)Nc2nnc(CCCCc3ccc(NC(=O)Cc4ccccc4)nn3)s2)cc1 [Compound 442] | 25 nM
O=C(Nc1ccc(CCCCc2nnc(NC(=O)C(O)c3cccc(Cl)c3)s2)nn1)C(O)c1cccc(Cl)c1 (centres unmarked) [Compound 446] | 150 nM
O=C(Cc1cccc(Cl)c1)Nc1ccc(CCCCc2nnc(NC(=O)C(O)c3cccc(Cl)c3)s2)nn1 (centres unmarked) [Compound 448] | 51 nM
CC(=O)NCCc1cccc(CC(=O)Nc2nnc(CCCCc3ccc(NC(=O)Cc4ccccc4)nn3)s2)c1 [Compound 454] | 130 nM
O=C(Cc1ccccc1)Nc1ccc(CCCCc2nnc(NC(=O)Cc3cccc(CNC(=O)C(F)(F)F)c3)s2)nn1 [Compound 458] | 13 nM

Compound | IC50
CC(=O)NCc1cccc(CC(=O)Nc2nnc(CCCCc3ccc(NC(C)=O)nn3)s2)c1 [Compound 459] | 570 nM
CC(=O)Nc1ccc(CCCCc2nnc(NC(=O)Cc3cccc(CNC(=O)CC(C)C)c3)s2)nn1 [Compound 461] | 62 nM
CC(C)(C)OC(=O)NCc1ccccc1CC(=O)Nc1nnc(CCCCc2ccc(NC(=O)Cc3ccccc3)nn2)s1 [Compound 464] | 59 nM
COc1cccc(CC(=O)Nc2ccc(CCCCc3nnc(NC(=O)C(O)c4cccc(Cl)c4)s3)nn2)c1 (centres unmarked) [Compound 467] | 47 nM
CC(C(=O)Nc1ccc(CCCCc2nnc(NC(=O)C(O)c3cccc(Cl)c3)s2)nn1)c1ccccc1 (centres unmarked) [Compound 468] | 270 nM
CN(C)C(=O)Cc1cccc(CC(=O)Nc2nnc(CCCCc3ccc(NC(=O)Cc4ccccc4)nn3)s2)c1 [Compound 472] | 24 nM
O=C(Cc1ccccc1)Nc1ccc(CCCCc2nnc(NC(=O)Cc3cccc(CC(=O)N4CCC(F)(F)CC4)c3)s2)nn1 [Compound 474] | 4 nM
O=C(Cc1ccccc1)Nc1ccc(CCCCc2nnc(NC(=O)Cc3cccc(CN4CCCCC4=O)c3)s2)nn1 [Compound 476] | 12 nM
C[C@@](O)(C(=O)NCc1cccc(CC(=O)Nc2nnc(CCCCc3ccc(NC(=O)Cc4ccccc4)nn3)s2)c1)C(F)(F)F [Compound 477] | 15 nM
CN(C)CC(=O)Nc1ccc(CCCCc2nnc(NC(=O)Cc3cccc(CNC(=O)OC(C)(C)C)c3)s2)nn1 [Compound 478] | 46 nM
O=C(Cc1ccccc1)Nc1ccc(CCCCc2nnc(NC(=O)Cc3cccc(CN4CCCC4=O)c3)s2)nn1 [Compound 479] | 30 nM
O=C(Cc1ccccc1)Nc1ccc(CCCCc2nnc(NC(=O)Cc3cccc(OCc4ccccn4)c3)s2)nn1 [Compound 480] | 6300 nM
CC(C(=O)Nc1nnc(CCCCc2ccc(NC(=O)Cc3cccc(CNC(=O)OC(C)(C)C)c3)nn2)s1)c1ccccc1 (centres unmarked) [Compound 489] | 23 nM
CC(=O)Nc1nnc(CCCCc2ccc(NC(=O)Cc3cccc(CNC(=O)OC(C)(C)C)c3)nn2)s1 [Compound 491] | 23 nM
CC(C)(C)OC(=O)NCc1cc(CC(=O)Nc2nnc(CCCCc3ccc(NC(=O)Cc4ccccc4)nn3)s2)ccc1F [Compound 492] | 14 nM
CC(C)(C)OC(=O)N1CCN(Cc2cc(CC(=O)Nc3nnc(CCCCc4ccc(NC(=O)Cc5ccccc5)nn4)s3)ccc2F)CC1 [Compound 493] | 57 nM
O=C(Cc1ccccc1)Nc1ccc(CCCCc2nnc(NC(=O)Cc3ccc(F)c(CN4CCNCC4)c3)s2)nn1 [Compound 494] | 580 nM
CCCCNC(=O)Cc1cccc(CC(=O)Nc2nnc(CCCCc3ccc(NC(=O)Cc4ccccc4)nn3)s2)c1 [Compound 496] | 17 nM
O=C(Cc1ccccc1)Nc1ccc(CCCCc2nnc(NC(=O)C(O)c3ccc(-c4ccccc4)cc3OCCO)s2)nn1 (centres unmarked) [Compound 504] | 120 nM
CC(C)(C)OC(=O)NCc1cccc(CC(=O)Nc2nnc(CCCCc3ccc(NC(=O)C(O)(CO)c4ccccc4)nn3)s2)c1 (centres unmarked) [Compound 507] | 41 nM
COC(C(=O)Nc1ccc(CCCCc2nnc(NC(=O)Cc3cccc(CNC(=O)OC(C)(C)C)c3)s2)nn1)c1ccccc1 (centres unmarked) [Compound 508] | 20 nM
COC(C(=O)Nc1nnc(CCCCc2ccc(NC(=O)Cc3cccc(CNC(=O)OC(C)(C)C)c3)nn2)s1)c1ccccc1 (centres unmarked) [Compound 509] | 9 nM

Compound | IC50
O=C(Cc1ccccc1)Nc1ccc(CCCCc2nnc(NC(=O)CC3=CN4CCCN=C4S3)s2)nn1 [Compound 511] | 1100 nM
O=C(Cc1ccccc1)Nc1ccc(CCCCc2nnc(NC(=O)Cc3cccc4[nH]ncc34)s2)nn1 [Compound 512] | 46 nM
COc1cc(CC(=O)Nc2nnc(CCCCc3ccc(NC(=O)Cc4ccccc4)nn3)s2)ccc1F [Compound 515] | 59 nM
CC(=O)N1CCN(Cc2cc(CC(=O)Nc3nnc(CCCCc4ccc(NC(=O)Cc5ccccc5)nn4)s3)ccc2F)CC1 [Compound 528] | 44 nM
CC(C)(C)OC(=O)NCc1cccc(CC(=O)Nc2nnc(CCCCc3ccc(NC(=O)C4(C)COC(C)(C)OC4)nn3)s2)c1 [Compound 529] | 160 nM
COc1ccccc1CC(=O)Nc1nnc(CCCCc2ccc(NC(=O)Cc3ccccc3Cl)nn2)s1 [Compound 531] | 42 nM
O=C(Cc1ccccc1F)Nc1ccc(CCCCc2nnc(NC(=O)Cc3ccccc3F)s2)nn1 [Compound 534] | 44 nM
Cc1ccccc1CC(=O)Nc1nnc(CCCCc2ccc(NC(=O)Cc3ccccc3Cl)nn2)s1 [Compound 535] | 90 nM
Cc1ccccc1CC(=O)Nc1nnc(CCCCc2ccc(NC(=O)Cc3ccccc3F)nn2)s1 [Compound 536] | 71 nM
COc1cc(CC(=O)Nc2ccc(CCCCc3nnc(NC(=O)Cc4ccccc4)s3)nn2)ccc1F [Compound 537] | 76 nM
CC(NC(=O)OC(C)(C)C)c1cccc(CC(=O)Nc2nnc(CCCCc3ccc(NC(=O)Cc4ccccc4)nn3)s2)c1 (centres unmarked) [Compound 541] | 6 nM
O=C(Cc1ccccc1)Nc1ccc(CCCCc2nnc(NC(=O)Cc3cccc(Cl)c3F)s2)nn1 [Compound 545] | 46 nM
CCOc1ccc(CC(=O)Nc2nnc(CCCCc3ccc(NC(=O)Cc4ccccc4)nn3)s2)cc1OC [Compound 547] | 31 nM
CCCC(=O)OCN(C(=O)Cc1cccc(CNC(=O)OC(C)(C)C)c1)c1nnc(CCCCc2ccc(NC(=O)Cc3ccccc3)nn2)s1 [Compound 552] | 5 nM
COc1cc(CC(=O)Nc2nnc(CCCCc3ccc(NC(=O)Cc4ccccc4)nn3)s2)ccc1O [Compound 554] | 172 nM
CC(C)Cc1ccc(C(C)C(=O)Nc2nnc(CCCCc3ccc(NC(=O)Cc4ccccc4)nn3)s2)cc1 (centres unmarked) [Compound 557] | 120 nM
CCCOc1ccc(C(O)C(=O)Nc2nnc(CCCCc3ccc(NC(=O)Cc4ccccc4)nn3)s2)cc1 (centres unmarked) [Compound 558] | 28 nM
CC(N)c1cccc(CC(=O)Nc2ccc(CCCCc3nnc(NC(=O)Cc4ccccc4)s3)nn2)c1 (centres unmarked) [Compound 560] | 37 nM
O=C(Cc1ccccc1F)Nc1ccc(CCCCc2nnc(NC(=O)Cc3ccccc3Cl)s2)nn1 [Compound 566] | 15 nM
CCCC(=O)OCN(C(=O)C(CO)c1cccc(CNC(=O)OC(C)(C)C)c1)c1nnc(CCCCc2ccc(NC(=O)Cc3ccccc3)nn2)s1 (centres unmarked) [Compound 567] | 21 nM
CC(C(=O)Nc1nnc(CCCCc2ccc(NC(=O)Cc3ccccc3)nn2)s1)c1ccc(F)c(CNC(=O)OC(C)(C)C)c1 (centres unmarked) [Compound 568] | 28 nM
CN(Cc1cc(CC(=O)Nc2nnc(CCCCc3ccc(NC(=O)Cc4ccccc4)nn3)s2)ccc1F)C(=O)OC(C)(C)C [Compound 569] | 11 nM

Same assay, conditions: P493-6, 72 h, read-out: Cell prolif P493 72 h IC50, P493 cells, 72 h

Compound | IC50
O=C(Cc1ccccc1)Nc1nnc(CCCCc2nnc(NC(=O)C(O)c3cccc(Cl)c3)s2)s1 (centres unmarked) [Compound 527] | 98 nM

Same assay, conditions: read-out: Cell prolif P493 72 h IC50; P493-6 cells, 72 h

Compound | IC50
CCCC(=O)OC(C(=O)Nc1nnc(CCCCc2ccc(NC(=O)Cc3ccccc3)nn2)s1)c1cccc(Cl)c1 (centres unmarked) [Compound 439] | 56 nM
